From patent US12157730B2, “Heteroaryl derivative, method for producing same, and pharmaceutical composition comprising same as effective component” (VORONOI INC., priority 2019, dated 2024) come the findings set out here.

What all share (type): cell-based
In assay [1] the target is T1, Ba/F3 cell EGFR L858R/T790M (Homo sapiens, UniProt P00533, L858R/T790M).
T1 construct: expressed in transfected cells; host or cells: Ba/F3
The assay is described as follows: Ba/F3 cell proliferation suppression, EGFR L858R/T790M. The conditions noted are these: 72 hours after treatment, CellTiter-Glo. As to the method: (§1) The following experiment was carried out to evaluate the suppression activity of the compounds according to the present invention against proliferation of Ba/F3 and lung cancer cells which express EGFR mutations.
(§2) Of the cancer cell lines expressing the EGFR gene, A549 was cultured after adding 10% FBS (HyClone) to DMEM (Invitrogen), and RPMI-1640 (Invitrogen) with 10% FBS was used for the other cancer cells. For the Ba/F3 cells, RPMI-1640 with 10% FBS and 5 ng/ml IL-3 (R&D Systems) was used. The transduced Ba/F3 cells were cultured by adding 1 ug/ml puromycin (Invitrogen) to the same medium.
(§3) 24 hours before treatment with the compounds, 3000 to 5000 cells were distributed into each well of a white clear bottom 96 well plate (Corning). The compounds were diluted in dimethylsulfoxide (dilution ratio 3:1; 12 concentrations total) and injected 0.5 ul each for a final concentration of 0.3 nM to 50 um. As for measurement of live cells, 72 hours after treatment with the compounds, a CellTiter-Glo luminescent cell-viability reagent (Promega) was used to store the cells at room temperature for 10 minutes, followed by measurement of luminescence using a reader (SynergyNeo, Biotek). Each test was repeated three times.
(§4) The result was calculated as a cell growth ratio (%) compared to a control. The program GraphPad Prism version 5.0 was used to draw the graphs and calculate the GI50 values.

Assay [2] relates to Ba/F3 cell EGFR Del19/T790M. In words: Ba/F3 cell proliferation suppression, EGFR Del19/T790M. The conditions noted are these: 72 hours after treatment, CellTiter-Glo. As to the method:
as §1, §2, §3, §4

The target in another assay is T2, Ba/F3 cell EGFR L858R (Homo sapiens, UniProt P00533, L858R).
T2 construct: expressed in transfected cells; host or cells: Ba/F3
In words: Ba/F3 cell proliferation suppression, EGFR L858R. The conditions noted are these: 72 hours after treatment, CellTiter-Glo. As to the method: as §1, §2, §3, §4

For a further assay, the system named is Ba/F3 cell naive. The assay is described as follows: Ba/F3 cell proliferation suppression, naive. Conditions: Mus musculus, BaF3; 72 hours after treatment, CellTiter-Glo. As to the method:
as §1, §2, §3, §4

Assay [3] deals with T3, Ba/F3 cell EGFR Exon20 ins NPH (Homo sapiens, UniProt P00533, INS773NPH).
T3 construct: expressed in transfected cells; host or cells: Ba/F3
In words: Ba/F3 cell proliferation suppression, EGFR Exon20 ins NPH. Conditions: for GI50: 72 hours after treatment, CellTiter-Glo; for Ba/F3 (NPH) Activity: GI50 class, Ba/F3 cell line with NPH inserted at Exon20 of EGFR, 72 hours. Summed up:
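Growth suppression determined as GI50 following 72 h exposure across 12 concentrations up to 50 um, with viability by luminescent ATP assay (CellTiter-Glo).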

Assay [4] has as its target T4, Ba/F3 cell EGFR Exon20 ins ASV (Homo sapiens, UniProt P00533, INS769ASV).
T4 construct: expressed in transfected cells; host or cells: Ba/F3
In words: Ba/F3 cell proliferation suppression, EGFR Exon20 ins ASV. Conditions: 72 hours after treatment, CellTiter-Glo. As to the method:
as §1, §2, §3, §4

Assay [5] has as its target T5, Ba/F3 cell EGFR Exon20 ins SVD (Homo sapiens, UniProt P00533, INS770SVD).
T5 construct: expressed in transfected cells; host or cells: Ba/F3
The assay is described as follows: Ba/F3 cell proliferation suppression, EGFR Exon20 ins SVD. Conditions: 72 hours after treatment, CellTiter-Glo. As to the method: as §1, §2, §3, §4

Assay [6] has as its target T6, Ba/F3 cell HER2 Exon20 ins YVMA (Homo sapiens, UniProt P04626, INS775YVMA).
T6 construct: expressed in transfected cells; host or cells: Ba/F3
In words: Ba/F3 cell proliferation suppression, HER2 Exon20 ins YVMA. The conditions noted are these: 72 hours after treatment, CellTiter-Glo. As to the method:
as §1, §2, §3, §4

T6 sequence (P04626 with tags, fused parts or gaps INS775YVMA): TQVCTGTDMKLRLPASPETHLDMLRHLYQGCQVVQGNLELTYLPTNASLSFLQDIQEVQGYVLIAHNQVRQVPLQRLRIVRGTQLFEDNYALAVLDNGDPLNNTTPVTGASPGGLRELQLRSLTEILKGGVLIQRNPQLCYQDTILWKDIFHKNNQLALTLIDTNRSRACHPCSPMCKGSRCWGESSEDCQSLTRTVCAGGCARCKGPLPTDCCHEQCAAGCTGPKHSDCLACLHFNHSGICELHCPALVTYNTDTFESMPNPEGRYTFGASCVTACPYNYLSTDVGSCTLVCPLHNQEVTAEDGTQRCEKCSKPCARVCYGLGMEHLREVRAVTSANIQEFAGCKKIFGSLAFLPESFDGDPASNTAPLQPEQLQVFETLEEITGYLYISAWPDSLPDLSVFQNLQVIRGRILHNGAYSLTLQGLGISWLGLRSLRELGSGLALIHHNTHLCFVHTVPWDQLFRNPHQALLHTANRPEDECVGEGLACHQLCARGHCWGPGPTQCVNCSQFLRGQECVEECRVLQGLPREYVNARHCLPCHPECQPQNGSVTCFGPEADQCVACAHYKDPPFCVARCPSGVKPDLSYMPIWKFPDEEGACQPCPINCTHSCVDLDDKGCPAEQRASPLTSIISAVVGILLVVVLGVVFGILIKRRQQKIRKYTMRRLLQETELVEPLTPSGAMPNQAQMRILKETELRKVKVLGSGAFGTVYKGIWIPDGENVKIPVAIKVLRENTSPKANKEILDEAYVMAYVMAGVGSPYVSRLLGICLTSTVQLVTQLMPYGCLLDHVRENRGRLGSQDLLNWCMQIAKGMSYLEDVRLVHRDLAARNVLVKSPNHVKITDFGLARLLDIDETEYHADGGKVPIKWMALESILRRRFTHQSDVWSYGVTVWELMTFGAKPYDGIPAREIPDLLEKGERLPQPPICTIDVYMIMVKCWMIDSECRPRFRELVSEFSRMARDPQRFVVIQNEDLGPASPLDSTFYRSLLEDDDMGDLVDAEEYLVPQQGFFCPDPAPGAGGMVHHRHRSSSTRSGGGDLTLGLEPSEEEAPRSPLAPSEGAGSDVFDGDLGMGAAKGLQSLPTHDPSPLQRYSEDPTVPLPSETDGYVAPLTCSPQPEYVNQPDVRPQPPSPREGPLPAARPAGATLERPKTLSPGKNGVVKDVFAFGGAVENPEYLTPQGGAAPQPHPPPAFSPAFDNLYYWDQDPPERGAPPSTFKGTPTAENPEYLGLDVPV

Turning to `C=CC(=O)Nc1cc(Nc2cc(N3OCC[C@@H]3c3ccccc3)ncn2)c(OC)cc1N1CCOCC1` [Example 5, N-(4-methoxy-2-morpholino-5-((6-((R)-3-phenylisoxazolidine-2-yl)pyrimidine-4-yl)amino)phenyl) acrylamide], the GI50 in assay [1] is 0.05 to 0.5 µM; in assay [2] it was 0.05 to 0.5 µM; at Ba/F3 cell EGFR L858R, below 0.05 µM; in the assay with Ba/F3 cell naive it was at least 5 µM.

Take `C=CC(=O)Nc1cc(Nc2cc(N3OCC[C@H]3c3ccccc3)ncn2)c(OC)cc1N(C)CCN(C)C` [Example 1, N-(2((2-(dimethylamino)ethyl) (methyl)amino)-4-methoxy-5-((6-((S)-3-phenylisoxazolidine-2-yl)pyrimidine-4-yl)amino)phenyl) acrylamide]: the GI50 is 0.05 to 0.5 µM in assay [1], 0.05 to 0.5 µM in assay [2], below 0.05 µM on Ba/F3 cell EGFR L858R and at least 5 µM with Ba/F3 cell naive.

For the compound `C=CC(=O)Nc1cc(Nc2cc(N3OCC[C@@H]3c3cc(F)cc(F)c3)ncn2)c(OC)cc1N1CCN(CC)CC1` [Example 240, N-(5-((6-((R)-3-(3,5-difluorophenyl)isoxazolidine-2-yl)pyrimidine-4-yl)amino)-2-(4-ethylpiperazine-1-yl)-4-methoxyphenyl) acrylamide], the 50% growth inhibitory concentration (GI50) was below 0.05 µM in assay [1], below 0.05 µM in assay [3], below 0.05 µM in assay [4] and at least 5 µM with Ba/F3 cell naive. Also, the “Ba/F3 (NPH) Activity” value in assay [3] is given as “A (GI50 < 50 nM)”.

For the compound `C=CC(=O)Nc1cc(Nc2cc(N3OCC[C@@H]3c3cc(F)cc(F)c3)ncn2)c(OC)cc1N1CCC(N2CC[C@@H](N(C)C)C2)CC1` [Example 237, N-(5-((6-((R)-3-(3,5-difluorophenyl)isoxazolidine-2-yl)pyrimidine-4-yl)amino)-2-(4-((R)-3-(dimethylamino)pyrolidine-1-yl)piperidine-1-yl)-4-methoxyphenyl) acrylamide], the GI50 in assay [1] was below 0.05 µM; in assay [3], below 0.05 µM; in assay [4], below 0.05 µM; in the assay on Ba/F3 cell naive, at least 5 µM. Moreover, the “Ba/F3 (NPH) Activity” value in assay [3] is given as “A (GI50 < 50 nM)”.

For the compound `C=CC(=O)Nc1cc(Nc2cc(N3OCC[C@@H]3c3ccccc3)ncn2)c(OC)cc1N1CCN(C2CC2)CC1` [Example 7, N-(2-(4-cyclopropylpiperazine-1-yl)-4-methoxy-5-((6-((R)-3-phenylisoxazolidine-2-yl)pyrimidine-4-yl)amino)phenyl) acrylamide], the figures for the GI50 (in assay [1]; in assay [2]; in the assay on Ba/F3 cell naive) were 0.05 to 0.5 µM, below 0.05 µM and at least 5 µM, respectively.

Consider `C=CC(=O)Nc1cc(Nc2cc(N3OCC[C@H]3c3ccccc3)ncn2)c(OC)cc1N1CCOCC1` [Example 2, N-(4-methoxy-2-morpholino-5-((6-((S)-3-phenylisoxazolidine-2-yl)pyrimidine-4-yl)amino)phenyl) acrylamide], for which the 50% growth inhibitory concentration (GI50) in assay [1] is 0.5 to 5 µM; in assay [2], 0.5 to 5 µM; on Ba/F3 cell EGFR L858R it was 0.05 to 0.5 µM; in the assay with Ba/F3 cell naive it was at least 5 µM.

Turning to `C=CC(=O)Nc1cc(Nc2cc(N3OCC[C@@H]3c3cc(F)cc(F)c3)ncn2)c(OC)cc1N1CCC(N2CC3CC(C2)N3CC)CC1` [Example 252, N-(5-((6-((R)-3-(3,5-difluorophenyl)isoxazolidine-2-yl)pyrimidine-4-yl)amino)-2-(4-(6-ethyl-3,6-diazabicyclo[3.1.1]heptane-3-yl)piperidine-1-yl)-4-methoxyphenyl) acrylamide], the GI50 was below 0.05 µM in assay [1], below 0.05 µM in assay [3] and 0.5 to 5 µM in the assay on Ba/F3 cell naive. Also, in assay [3], the “Ba/F3 (NPH) Activity” value is on record as “A (GI50 < 50 nM)”.

With `C=CC(=O)Nc1cc(Nc2cc(N3OCC[C@@H]3c3ccccc3)ncn2)c(OC)cc1OCCN(C)C` [Example 8, N-(2-(2-(dimethylamino)ethxy)-4-methoxy-5-((6-(R)-3-phenylisoxazolidine-2-yl)pyrimidine-4-yl-amino)phenyl) acrylamide], the figures for the 50% growth inhibitory concentration (GI50) (in assay [1]; in assay [2]; in the assay on Ba/F3 cell naive) were 0.05 to 0.5 µM, 0.05 to 0.5 µM and 0.5 to 5 µM, respectively.

As for `C=CC(=O)Nc1cc(Nc2cc(N3OCC[C@@H]3c3cc(F)cc(F)c3)ncn2)c(OC)cc1N1CCC(N2CCC(N(C)C)CC2)CC1` [Example 253], the GI50 in assay [1] is below 0.05 µM; in assay [3], below 0.05 µM; in the assay on Ba/F3 cell naive, 0.5 to 5 µM. Besides, the “Ba/F3 (NPH) Activity” value in assay [3] is on record as “A (GI50 < 50 nM)”.

As for `C=CC(=O)Nc1cc(Nc2cc(N3OCC[C@@H]3c3cc(F)cc(F)c3)ncn2)c(OC)cc1N1CCC(N2CCN(C)CC2)CC1` [Example 26, N-(5-((6-((R)-3-(3,5-difluorophenyl)isoxazolidine-2-yl)pyrimidine-4-yl)amino)-4-methoxy-2-(4-(4-methylpiperazine-1-yl)piperidine-1-yl)phenyl)acrylamide], the GI50 in assay [1] was below 0.05 µM; in assay [3] it was below 0.05 µM; in assay [5] it was below 0.05 µM; in assay [6] it was below 0.05 µM; in the assay on Ba/F3 cell naive, at least 5 µM. Also, the “Ba/F3 (NPH) Activity” value in assay [3] is recorded as “A (GI50 < 50 nM)”.
